Laboratory results as given in PubChem BioAssay (NCI).
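Following 48 hours of exposure in 96-well plates, responses at five concentrations were used to interpolate endpoints linearly. Here, GI50 denotes the concentration required for 50% inhibition of growth. TGI is the concentration that stops growth completely.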

Columns and labels:
Experiment in all cases: growth of human tumour cells (NCI), 48 h
[1] = system: 786-0 renal
[2] = system: A498 renal
[3] = system: A549 NSCLC
[4] = system: ACHN renal
[5] = system: BT-549 breast
[6] = system: CAKI-1 renal
[7] = system: CCRF-CEM leukemia
[8] = system: COLO 205 colon
[9] = system: DU-145 prostate
[10] = system: EKVX NSCLC
[11] = system: HCC-2998 colon
[12] = system: HCT-116 colon
[13] = system: HCT-15 colon
[14] = system: HL-60(TB) leukemia
[15] = system: HOP-62 NSCLC
[16] = system: HOP-92 NSCLC
[17] = system: HS 578T breast
[18] = system: HT29 colon
[19] = system: IGROV1 ovarian
[20] = system: K-562 leukemia
[21] = system: KM12 colon
[22] = system: LOX IMVI melanoma
[23] = system: M14 melanoma
[24] = system: MALME-3M melanoma
[25] = system: MCF7 breast
[26] = system: MDA-MB-231 breast
[27] = system: MDA-MB-435
[28] = system: MOLT-4 leukemia
[29] = system: NCI-H226 lung
[30] = system: NCI-H23 lung
[31] = system: NCI-H460 lung
[32] = system: NCI-H522 lung
[33] = system: NCI/ADR-RES ovarian
[34] = system: OVCAR-3 ovarian
[35] = system: OVCAR-4 ovarian
[36] = system: OVCAR-5 ovarian
[37] = system: OVCAR-8 ovarian
[38] = system: PC-3 prostate
[39] = system: RPMI-8226 leukemia
[40] = system: RXF 393 renal
[41] = system: SF-268 CNS
[42] = system: SF-295 CNS
[43] = system: SF-539 CNS
[44] = system: SK-MEL-2 melanoma
[45] = system: SK-MEL-28 melanoma
[46] = system: SK-MEL-5 melanoma
[47] = system: SK-OV-3 ovarian
[48] = system: SN12C renal
[49] = system: SNB-19 CNS
[50] = system: SNB-75 CNS
[51] = system: SR leukemia
[52] = system: SW-620 colon
[53] = system: T-47D breast
[54] = system: TK-10 renal
[55] = system: U251 CNS
[56] = system: UACC-257 melanoma
[57] = system: UACC-62 melanoma
[58] = system: UO-31 renal

Cc1nc2sccn2c(=O)c1CCN1CCC(=C(c2ccc(F)cc2)c2ccc(F)cc2)CC1
GI50 [1]: 12 µM
TGI [1]: 27.8 µM
GI50 [2]: 15.3 µM
TGI [2]: 29.4 µM
GI50 [3]: 12.9 µM
TGI [3]: 29.1 µM
GI50 [4]: 13.4 µM
TGI [4]: 26.3 µM
GI50 [5]: 9.38 µM
TGI [5]: 24.5 µM
GI50 [6]: 12.9 µM
TGI [6]: 25.7 µM
GI50 [7]: 0.559 µM
TGI [7]: 26.3 µM
GI50 [8]: 7.69 µM
TGI [8]: 24.1 µM
GI50 [9]: 15.7 µM
TGI [9]: 30.4 µM
GI50 [10]: 10.7 µM
TGI [10]: 24.1 µM
GI50 [11]: 12.3 µM
TGI [11]: 27.5 µM
GI50 [12]: 5.36 µM
TGI [12]: 20.3 µM
GI50 [13]: 4.53 µM
TGI [13]: 17.5 µM
GI50 [14]: 5.92 µM
TGI [14]: 26.5 µM
GI50 [15]: 17.9 µM
TGI [15]: 33.4 µM
GI50 [16]: 5.16 µM
TGI [16]: 19.2 µM
GI50 [17]: 16.3 µM
TGI [17]: 43.3 µM
GI50 [18]: 5.37 µM
TGI [18]: 19 µM
GI50 [19]: 9.96 µM
TGI [19]: 26.4 µM
GI50 [20]: 5.18 µM
TGI [20]: 26.2 µM
GI50 [21]: 12.2 µM
TGI [21]: 27.4 µM
GI50 [22]: 8.18 µM
TGI [22]: 22.9 µM
GI50 [23]: 9.53 µM
TGI [23]: 24.8 µM
GI50 [24]: 11.4 µM
TGI [24]: 25.5 µM
GI50 [25]: 6.88 µM
TGI [25]: 23 µM
GI50 [26]: 15.2 µM
TGI [26]: 31.9 µM
GI50 [27]: 14.2 µM
TGI [27]: 28.2 µM
GI50 [28]: 8.52 µM
TGI [28]: 29.9 µM
GI50 [29]: 15.3 µM
TGI [29]: 41 µM
GI50 [30]: 13.2 µM
TGI [30]: 29 µM
GI50 [31]: 7.49 µM
TGI [31]: 22.7 µM
GI50 [32]: 11.1 µM
TGI [32]: 25.7 µM
GI50 [33]: 13.8 µM
TGI [33]: 32.9 µM
GI50 [34]: 12.8 µM
TGI [34]: 27.2 µM
GI50 [35]: 12.6 µM
TGI [35]: 27.9 µM
GI50 [36]: 15.2 µM
TGI [36]: 29.4 µM
GI50 [37]: 17 µM
TGI [37]: 41 µM
GI50 [38]: 4.81 µM
TGI [38]: 19.3 µM
GI50 [39]: 3.78 µM
TGI [39]: 25.2 µM
GI50 [40]: 11.3 µM
TGI [40]: 26.9 µM
GI50 [41]: 15.9 µM
TGI [41]: 32.8 µM
GI50 [42]: 13 µM
TGI [42]: 28.7 µM
GI50 [43]: 15 µM
TGI [43]: 28.9 µM
GI50 [44]: 16.8 µM
TGI [44]: 32.2 µM
GI50 [45]: 13.4 µM
TGI [45]: 26.9 µM
GI50 [46]: 4.01 µM
TGI [46]: 15 µM
GI50 [47]: 16.3 µM
TGI [47]: 30.7 µM
GI50 [48]: 14.5 µM
TGI [48]: 29.3 µM
GI50 [49]: 16 µM
TGI [49]: 30.3 µM
GI50 [50]: 14.5 µM
TGI [50]: 28.7 µM
GI50 [51]: 0.551 µM
TGI [51]: 26.7 µM
GI50 [52]: 10.9 µM
TGI [52]: 24.1 µM
GI50 [53]: 11.7 µM
TGI [53]: 28.9 µM
GI50 [54]: 13.9 µM
TGI [54]: 27.6 µM
GI50 [55]: 10.5 µM
TGI [55]: 23.7 µM
GI50 [56]: 9.2 µM
TGI [56]: 21.9 µM
GI50 [57]: 6.73 µM
TGI [57]: 20.5 µM
GI50 [58]: 4.06 µM
TGI [58]: 18.8 µM

O=C1OCC(c2cccs2)=C1Cl
GI50 [1]: > 100 µM
TGI [1]: > 100 µM
GI50 [2]: 17.6 µM
TGI [2]: 63.9 µM
GI50 [3]: 41.1 µM
TGI [3]: > 100 µM
GI50 [4]: 56.7 µM
TGI [4]: > 100 µM
GI50 [5]: 33.4 µM
TGI [5]: > 100 µM
GI50 [6]: > 100 µM
TGI [6]: > 100 µM
GI50 [7]: 84.1 µM
TGI [7]: > 100 µM
GI50 [8]: 32.2 µM
TGI [8]: > 100 µM
GI50 [9]: 26.7 µM
TGI [9]: > 100 µM
GI50 [10]: 40.5 µM
TGI [10]: > 100 µM
GI50 [12]: > 100 µM
TGI [12]: > 100 µM
GI50 [13]: 74.2 µM
TGI [13]: > 100 µM
GI50 [14]: > 100 µM
TGI [14]: > 100 µM
GI50 [15]: > 100 µM
TGI [15]: > 100 µM
GI50 [16]: 54.5 µM
TGI [16]: > 100 µM
GI50 [17]: 39 µM
TGI [17]: > 100 µM
GI50 [18]: 62.4 µM
TGI [18]: > 100 µM
GI50 [19]: > 100 µM
TGI [19]: > 100 µM
GI50 [20]: > 100 µM
TGI [20]: > 100 µM
GI50 [21]: 76.3 µM
TGI [21]: > 100 µM
GI50 [22]: 89.5 µM
TGI [22]: > 100 µM
GI50 [23]: > 100 µM
TGI [23]: > 100 µM
GI50 [24]: > 100 µM
TGI [24]: > 100 µM
GI50 [25]: 39.3 µM
TGI [25]: > 100 µM
GI50 [26]: 24.7 µM
TGI [26]: 98.2 µM
GI50 [27]: > 100 µM
TGI [27]: > 100 µM
GI50 [28]: > 100 µM
TGI [28]: > 100 µM
GI50 [29]: 28.2 µM
TGI [29]: 95.5 µM
GI50 [30]: 60.6 µM
TGI [30]: > 100 µM
GI50 [31]: 56.8 µM
TGI [31]: > 100 µM
GI50 [32]: 42.4 µM
TGI [32]: > 100 µM
GI50 [33]: 48.1 µM
TGI [33]: > 100 µM
GI50 [34]: 44.8 µM
TGI [34]: > 100 µM
GI50 [35]: 73.8 µM
TGI [35]: > 100 µM
GI50 [36]: 76.7 µM
TGI [36]: > 100 µM
GI50 [37]: 90.1 µM
TGI [37]: > 100 µM
GI50 [38]: > 100 µM
TGI [38]: > 100 µM
GI50 [39]: 32.2 µM
TGI [39]: > 100 µM
GI50 [40]: 53 µM
TGI [40]: > 100 µM
GI50 [41]: > 100 µM
TGI [41]: > 100 µM
GI50 [42]: 80.9 µM
TGI [42]: > 100 µM
GI50 [43]: 23.2 µM
TGI [43]: 86 µM
GI50 [44]: > 100 µM
TGI [44]: > 100 µM
GI50 [45]: 76.8 µM
TGI [45]: > 100 µM
GI50 [46]: 86.3 µM
TGI [46]: > 100 µM
GI50 [47]: > 100 µM
TGI [47]: > 100 µM
GI50 [48]: 26.7 µM
TGI [48]: > 100 µM
GI50 [49]: > 100 µM
TGI [49]: > 100 µM
GI50 [50]: 75.9 µM
TGI [50]: > 100 µM
GI50 [51]: > 100 µM
TGI [51]: > 100 µM
GI50 [52]: > 100 µM
TGI [52]: > 100 µM
GI50 [53]: 7.47 µM
TGI [53]: > 100 µM
GI50 [54]: 54.2 µM
TGI [54]: > 100 µM
GI50 [55]: 52.9 µM
TGI [55]: > 100 µM
GI50 [56]: 41 µM
TGI [56]: > 100 µM
GI50 [57]: 19.5 µM
TGI [57]: > 100 µM
GI50 [58]: 89 µM
TGI [58]: > 100 µM
